Test [1] is described as follows: A375 melanoma cell viability loss, dose response, counter-screen for MITF inhibitor project, CellTiter-Glo luminescence, dry powder, set 4 (AID 624364).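 Also: A375 melanoma cells are MITF independent so this is a counter screen.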 The settings on record: A-375. Format: functional, cell-based.
Test [2] is described as follows: A375 melanoma cell cytotoxicity, dose response, counter-screen for MITF inhibitor project, CellTiter-Glo luminescence, dry powder, set 6 (AID 624488). Format: functional, cell-based. The settings on record: A-375.
The nature of test [3]: A375 melanoma cell cytotoxicity, dose response, counter-screen for MITF inhibitor project, CellTiter-Glo luminescence, dry powder, set 2 (AID 624489).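 Also: actives are compounds lowering A375 viability meaning general cytotoxicity.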 Type of test: functional, cell-based. The following applies: A-375.
Test [4] is described as follows: TRPM1 promoter luciferase reporter signal decrease, dose response, MITF inhibitor project, cell-based, SK-MEL-5, dry powder, set 9 (AID 651588). Format: functional.
Test [5] can be described thus: SK-MEL-5 parental cell viability reduction, dose response, orthogonal assay for MITF inhibitor project, CellTiter-Glo luminescence, dry powder, set 8 (AID 651586). Format: functional, cell-based.
Test [6] is described as follows: MITF Orthogonal Assay: SK-MEL-5 CTG Assay Measured in Cell-Based System Using Plate Reader - 2084-02_Inhibitor_Dose_DryPowder_Activity_Set5. Type of test: functional.
Test [7] is described as follows: MALME3 melanoma cell viability reduction, dose response, orthogonal assay for MITF inhibitor project, CellTiter-Glo luminescence, dry powder, set 5 (AID 651584). The settings on record: MALME-3. Format: functional, cell-based.
Test [8] is described as follows: MITF Measured in Cell-Based System Using Plate Reader - 2084-01_Inhibitor_Dose_DryPowder_Activity_Set7. Format: functional.
The target in test [9] is T1, Microphthalmia-associated transcription factor (Homo sapiens, UniProt O75030).
T1 sequence (O75030 whole entry): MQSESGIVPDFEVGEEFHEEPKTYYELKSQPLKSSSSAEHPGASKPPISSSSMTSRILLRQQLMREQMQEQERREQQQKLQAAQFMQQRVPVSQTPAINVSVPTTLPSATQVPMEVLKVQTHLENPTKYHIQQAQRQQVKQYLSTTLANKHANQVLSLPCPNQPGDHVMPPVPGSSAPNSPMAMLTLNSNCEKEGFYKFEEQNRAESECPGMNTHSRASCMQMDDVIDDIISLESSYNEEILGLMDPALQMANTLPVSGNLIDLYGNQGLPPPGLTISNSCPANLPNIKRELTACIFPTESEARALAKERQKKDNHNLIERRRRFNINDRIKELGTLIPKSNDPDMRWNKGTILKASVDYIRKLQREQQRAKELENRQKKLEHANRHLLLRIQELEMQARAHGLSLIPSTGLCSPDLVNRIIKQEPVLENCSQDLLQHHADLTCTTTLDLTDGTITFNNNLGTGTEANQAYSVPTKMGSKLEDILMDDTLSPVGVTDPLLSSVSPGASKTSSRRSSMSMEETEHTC
Nature of the test: TRPM1 promoter luciferase signal decrease, dose response, MITF inhibitor project, cell-based, SK-MEL-5, cherry-picked, set 3 (AID 493073).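 Also: SK-MEL-5 melanoma cells with luciferase driven by the MITF target TRPM1 promoter.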 Format: functional.

Test [10] can be described thus: MITF Measured in Cell-Based System Using Plate Reader - 2084-01_Inhibitor_Dose_DryPowder_Activity_Set6. Type of test: functional.
Test [11] can be described thus: A375 melanoma cell viability loss, dose response, counter-screen for MITF modulator project, CellTiter-Glo luminescence, dry powder, set 9 (AID 651591). Format: functional, cell-based. The following applies: A-375.
Test [12] addresses T2, Apoptotic protease-activating factor 1 (Homo sapiens, UniProt O14727).
T2 sequence (O14727 whole entry): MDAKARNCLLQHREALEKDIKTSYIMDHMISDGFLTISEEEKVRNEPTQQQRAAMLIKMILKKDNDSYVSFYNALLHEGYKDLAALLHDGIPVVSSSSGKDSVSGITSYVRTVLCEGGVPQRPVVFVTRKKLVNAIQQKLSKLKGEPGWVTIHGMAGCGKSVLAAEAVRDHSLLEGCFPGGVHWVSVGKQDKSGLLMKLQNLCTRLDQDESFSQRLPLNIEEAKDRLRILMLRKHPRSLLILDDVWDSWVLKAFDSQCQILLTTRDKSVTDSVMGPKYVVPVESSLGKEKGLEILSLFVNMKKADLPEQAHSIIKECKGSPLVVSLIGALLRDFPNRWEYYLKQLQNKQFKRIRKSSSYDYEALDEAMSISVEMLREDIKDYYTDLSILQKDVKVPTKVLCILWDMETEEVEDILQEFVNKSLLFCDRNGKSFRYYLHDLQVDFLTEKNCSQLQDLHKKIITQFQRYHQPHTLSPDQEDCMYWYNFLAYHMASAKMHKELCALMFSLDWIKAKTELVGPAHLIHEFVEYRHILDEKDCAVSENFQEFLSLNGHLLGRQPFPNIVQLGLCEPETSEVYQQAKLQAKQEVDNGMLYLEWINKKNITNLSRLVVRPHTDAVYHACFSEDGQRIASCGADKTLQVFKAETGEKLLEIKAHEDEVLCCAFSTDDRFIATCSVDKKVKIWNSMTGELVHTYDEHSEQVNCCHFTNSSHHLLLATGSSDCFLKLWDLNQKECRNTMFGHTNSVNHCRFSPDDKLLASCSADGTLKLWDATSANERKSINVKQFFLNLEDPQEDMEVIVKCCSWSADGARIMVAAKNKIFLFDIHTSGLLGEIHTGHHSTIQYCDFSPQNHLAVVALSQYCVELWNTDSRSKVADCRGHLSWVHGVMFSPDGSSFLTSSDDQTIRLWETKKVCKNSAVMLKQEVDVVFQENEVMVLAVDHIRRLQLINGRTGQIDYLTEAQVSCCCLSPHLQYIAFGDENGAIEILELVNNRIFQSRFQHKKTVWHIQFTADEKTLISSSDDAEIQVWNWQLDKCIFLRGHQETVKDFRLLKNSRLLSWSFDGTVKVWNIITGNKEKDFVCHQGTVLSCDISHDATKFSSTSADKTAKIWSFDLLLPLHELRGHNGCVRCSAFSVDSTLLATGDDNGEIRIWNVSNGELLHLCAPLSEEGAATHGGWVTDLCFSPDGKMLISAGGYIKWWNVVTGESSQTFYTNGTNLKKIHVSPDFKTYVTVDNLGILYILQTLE
Format: functional.

Test [13] is described as follows: A375 melanoma cell cytotoxicity, dose response, counter-screen for MITF inhibitor project, CellTiter-Glo luminescence, dry powder, set 7 (AID 624490). Format: functional, cell-based. The following applies: A-375.
Test [14] in a line: MITF Orthogonal Assay: MALME3 CTG Assay Measured in Cell-Based System Using Plate Reader - 2084-04_Inhibitor_Dose_DryPowder_Activity_Set6. The following applies: MALME-3. Type of test: functional.
The nature of test [15]: SK-MEL-5 parental line viability, dose response, MITF inhibitor project, cell-based, CellTiter-Glo, dry powder, set 6 (AID 624429). Format: functional.
Test [16] is described as follows: A549 cell cytotoxicity, dose response, cytotoxicity control, plate reader, dry powder, set 7 (AID 743318). Type of test: functional, cell-based.
Test [17] in a line: P. falciparum late gametocyte killing, dose response, luminescence (AID 1117278).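 Also: gametocytes exposed to compound for 24 hours.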 Type of test: functional, cell-based.
Test [18] is described as follows: Jurkat T cell cytotoxicity, dose response, cytotoxicity control for P. falciparum gametocyte viability project, luminescence (AID 1117277).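 Also: potency reflects loss of cellular ATP meaning fewer viable cells.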 Type of test: functional, cell-based.
Test [19] deals with T3, Calpain-2 catalytic subunit (Sus scrofa, UniProt P43367).
T3 sequence (P43367 whole entry): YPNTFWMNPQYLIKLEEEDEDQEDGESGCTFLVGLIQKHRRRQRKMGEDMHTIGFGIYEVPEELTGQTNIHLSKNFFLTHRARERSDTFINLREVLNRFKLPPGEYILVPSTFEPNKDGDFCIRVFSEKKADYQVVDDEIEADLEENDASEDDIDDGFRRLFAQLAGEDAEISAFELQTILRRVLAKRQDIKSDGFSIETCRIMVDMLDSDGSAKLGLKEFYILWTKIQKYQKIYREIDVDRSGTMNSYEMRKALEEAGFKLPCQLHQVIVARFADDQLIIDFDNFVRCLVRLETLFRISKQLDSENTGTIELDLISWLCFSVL
Nature of the test: pig calpain II inhibitor potency, dose response, biochemical, fluorogenic peptide substrate (AID 1420). Type of test: functional.

Test [20] concerns the target Leucyl-cystinyl aminopeptidase (Mus musculus, UniProt Q8C129). Briefly: IRAP enzyme inhibitors, dose response, selectivity assay for ERAP1 modulator project, biochemical, dry powder samples, set 3 (AID 1117288). Format: functional.
Test [21] addresses Endoplasmic reticulum aminopeptidase 2 (Homo sapiens, UniProt Q6P179). Briefly: ERAP2 aminopeptidase inhibitors, dose response, selectivity assay for selective ERAP1 modulator project, biochemical, plate reader, dry powder, set 2 (AID 1117289). Format: functional.

Active and inactive are the calls of the source.

Sequence of Endoplasmic reticulum aminopeptidase 2 (Q6P179 whole entry): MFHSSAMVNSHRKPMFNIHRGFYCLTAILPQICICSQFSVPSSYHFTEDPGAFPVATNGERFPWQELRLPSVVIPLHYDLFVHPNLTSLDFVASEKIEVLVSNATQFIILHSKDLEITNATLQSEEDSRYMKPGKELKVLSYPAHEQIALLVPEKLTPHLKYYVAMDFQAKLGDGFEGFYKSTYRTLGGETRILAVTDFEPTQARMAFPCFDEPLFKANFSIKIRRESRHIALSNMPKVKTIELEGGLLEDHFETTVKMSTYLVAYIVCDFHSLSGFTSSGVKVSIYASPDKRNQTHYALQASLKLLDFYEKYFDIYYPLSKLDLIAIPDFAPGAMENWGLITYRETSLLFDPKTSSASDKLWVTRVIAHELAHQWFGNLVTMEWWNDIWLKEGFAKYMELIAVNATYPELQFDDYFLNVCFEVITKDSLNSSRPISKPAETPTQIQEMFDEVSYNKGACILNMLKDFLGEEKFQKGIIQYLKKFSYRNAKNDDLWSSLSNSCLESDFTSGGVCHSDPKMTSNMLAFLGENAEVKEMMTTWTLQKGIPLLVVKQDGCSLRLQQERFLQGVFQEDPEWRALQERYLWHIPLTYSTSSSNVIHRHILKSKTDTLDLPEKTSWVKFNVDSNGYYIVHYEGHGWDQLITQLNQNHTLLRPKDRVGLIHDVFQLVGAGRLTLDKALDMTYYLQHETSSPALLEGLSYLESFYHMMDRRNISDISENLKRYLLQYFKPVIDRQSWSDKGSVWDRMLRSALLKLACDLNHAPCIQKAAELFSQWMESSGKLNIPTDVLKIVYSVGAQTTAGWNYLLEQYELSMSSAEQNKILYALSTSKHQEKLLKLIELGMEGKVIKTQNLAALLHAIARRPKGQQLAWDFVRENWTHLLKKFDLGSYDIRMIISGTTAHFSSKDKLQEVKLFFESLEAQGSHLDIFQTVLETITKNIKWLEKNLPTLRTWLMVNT
Sequence of Leucyl-cystinyl aminopeptidase (Q8C129 whole entry): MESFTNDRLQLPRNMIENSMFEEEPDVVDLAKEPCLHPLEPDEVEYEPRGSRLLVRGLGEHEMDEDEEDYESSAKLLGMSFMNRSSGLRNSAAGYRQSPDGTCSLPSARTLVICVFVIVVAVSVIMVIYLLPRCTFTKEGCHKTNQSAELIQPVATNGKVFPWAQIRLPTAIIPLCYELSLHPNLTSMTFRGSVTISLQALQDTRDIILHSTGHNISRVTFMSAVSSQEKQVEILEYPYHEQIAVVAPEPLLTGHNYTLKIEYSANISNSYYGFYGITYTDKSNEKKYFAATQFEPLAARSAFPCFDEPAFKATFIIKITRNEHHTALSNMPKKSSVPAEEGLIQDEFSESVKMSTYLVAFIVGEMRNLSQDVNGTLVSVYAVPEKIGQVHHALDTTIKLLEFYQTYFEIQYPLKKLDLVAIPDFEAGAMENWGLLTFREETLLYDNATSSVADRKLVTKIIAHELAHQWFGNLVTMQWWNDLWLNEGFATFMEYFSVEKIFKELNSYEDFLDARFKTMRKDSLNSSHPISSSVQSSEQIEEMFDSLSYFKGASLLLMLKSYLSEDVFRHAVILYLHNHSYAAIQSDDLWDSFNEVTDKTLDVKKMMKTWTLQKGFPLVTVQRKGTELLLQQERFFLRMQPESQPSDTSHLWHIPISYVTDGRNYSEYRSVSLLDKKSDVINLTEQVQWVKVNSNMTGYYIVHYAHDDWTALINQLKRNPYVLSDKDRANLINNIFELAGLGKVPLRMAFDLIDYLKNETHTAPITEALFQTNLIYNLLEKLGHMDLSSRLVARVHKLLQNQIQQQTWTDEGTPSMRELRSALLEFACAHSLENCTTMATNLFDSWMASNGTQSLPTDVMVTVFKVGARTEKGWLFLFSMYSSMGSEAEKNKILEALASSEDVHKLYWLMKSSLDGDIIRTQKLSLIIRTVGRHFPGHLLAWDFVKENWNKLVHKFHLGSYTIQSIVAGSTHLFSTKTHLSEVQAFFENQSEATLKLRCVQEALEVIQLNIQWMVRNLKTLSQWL

`CCN1CCN(C2=C(NS(=O)(=O)c3ccc(Br)cc3)C(=O)c3ccccc3C2=O)CC1`: the AC50 in test [1] was > 70 µM (inactive); in test [2] it was 55.1 µM (active); in test [3], > 70 µM (inactive); in [4], 17.3 µM (active); in test [5] it was 48.4 µM (active); in test [6], 34.3 µM (active). Also, the AC50 is 20.9 µM (active) in test [7]; 4.5 µM (active) in test [8]; 5.7 µM (active) in [9]; 8.92 µM (active) in test [10]; > 70 µM (inactive) in test [11]; > 70 µM (inactive) in test [13]. Moreover, the AC50 in [14] is 20.9 µM (active); in [15], 46.2 µM (active). Also, in test [12], the IC50 was 24.3 µM (active).
As for `Cc1ccc(C(C)C)c(OCCn2c(=S)[nH]c3cc(F)ccc32)c1`, the AC50 in test [16] was 26.9 µM (active).
In the case of `CCc1ccc2nc(NC(=O)Cn3cnc4ccccc4c3=O)sc2c1`, the values for the IC50 in [17], in [18] and in test [19] were > 109 µM (inactive), > 83.3 µM (inactive) and 11.7 µM (not active), respectively.
As to `COc1ccc(C(=O)O)cc1S(=O)(=O)Nc1ccc(C(F)(F)F)cc1N1CCCCC1`, the AC50 in test [20] is 77 µM (active); in test [21], 12.5 µM (active).

For the origin of these results see ChEMBL document CHEMBL1201862, “PubChem BioAssay data set” (2004).
